According to the supplement of paper PMC4862054:

Key:
SK-BR-3 [1] = assay: normalised viability (% of control), CellTiter-Blue; higher = more viable cells (about 100 = DMSO control); details: incubation time: 72 h
Method in brief: (§1)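 Compound dissolved in 5 µl medium was pre-loaded into 384-well plates, and breast cancer cell lines in 20 µl suspension were seeded on top and incubated 72 h. After adding 2.5 µl CellTiter-Blue reagent for 2 h at 37 °C, fluorescence was read at 560/590 nm. Plates were normalised to vehicle (100) and a positive kill control (0), with Z'-factor quality control. Each value is normalised viability at a single listed concentration from the series.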

MDA-MB-436 [2] = assay: as above; details: incubation time: 72 h
Method in brief: as §1

HCC1937 = assay: as above; details: incubation time: 72 h
Method in brief: as §1

MDA-MB-453 = assay: as above; details: incubation time: 72 h
Method in brief: as §1

HCC1599 = assay: as above; details: incubation time: 72 h
Method in brief: as §1

HCC1143 = assay: as above; details: incubation time: 72 h
Method in brief: as §1

CAL-148 = assay: as above; details: incubation time: 72 h
Method in brief: as §1

Hs578T = assay: as above; details: incubation time: 72 h
Method in brief: as §1

CAL-51 = assay: as above; details: incubation time: 72 h
Method in brief: as §1

MDA-MB-231 = assay: as above; details: incubation time: 72 h
Method in brief: as §1

DU-4475 = assay: as above; details: incubation time: 72 h
Method in brief: as §1

BT-549 [3] = assay: as above; details: incubation time: 72 h
Method in brief: as §1

MFM-223 = assay: as above; details: incubation time: 72 h
Method in brief: as §1

MDA-MB-468 = assay: as above; details: incubation time: 72 h
Method in brief: as §1

HDQ-P1 = assay: as above; details: incubation time: 72 h
Method in brief: as §1

BT-474 = assay: as above; details: incubation time: 72 h
Method in brief: as §1

CAL-120 [4] = assay: as above; details: incubation time: 72 h
Method in brief: as §1

CAL-85-1 = assay: as above; details: incubation time: 72 h
Method in brief: as §1

SK-BR-3 [5] = details: 72 h
Method in brief: (§2)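 Viability of breast cancer cell lines was measured with CellTiter-Blue after 72 h of incubation on compound-loaded 384-well plates. Cells were seeded in 20 µl onto compound dissolved in 5 µl medium, and 2.5 µl reagent was added for 2 h at 37 °C before reading at 560/590 nm. EC50 was fitted from percent-inhibition dose-response data censored at the highest concentration, normalised per plate to vehicle and a positive kill control, with zero drug sensitivity score rows dropped.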

MDA-MB-436 [6] = details: 72 h
Method in brief: as §2

BT-549 [7] = details: 72 h
Method in brief: as §2

CAL-120 [8] = details: 72 h
Method in brief: as §2

C=CC[C@@H]1/C=C(\C)C[C@H](C)C[C@H](OC)[C@H]2O[C@@](O)(C(=O)C(=O)N3CCCC[C@H]3C(=O)O[C@H](/C(C)=C/[C@@H]3CC[C@@H](O)[C@H](OC)C3)[C@H](C)[C@@H](O)CC1=O)[C@H](C)C[C@@H]2OC [Tacrolimus]
normalised viability [%]
Details | 3 nM | 10 nM | 30 nM | 100 nM | 1000 nM | 10000 nM
BT-474 | – | 125 | – | – | 108 | 114
BT-549 [3] | – | 89.5 | – | – | 103 | 89.8
CAL-51 | 108 | – | 103 | 97.7 | – | –
CAL-85-1 | 104 | – | 92.1 | 98.5 | – | –
CAL-120 [4] | – | 106 | – | – | 103 | 106
CAL-148 | 97.3 | – | 101 | 101 | – | –
DU-4475 | 99.8 | – | 90.9 | 99.5 | – | –
HCC1143 | – | 102 | – | – | 118 | 102
HCC1599 | – | 109 | – | – | 101 | 95.5
HCC1937 | – | 114 | – | – | 63.1 | 92.5
HDQ-P1 | 116 | – | 120 | 133 | – | –
Hs578T | – | 104 | – | – | 103 | 87.8
MDA-MB-231 | – | 109 | – | – | 105 | 113
MDA-MB-436 [2] | – | 116 | – | – | 104 | 108
MDA-MB-453 | 112 | – | 96.8 | 103 | – | –
MDA-MB-468 | – | 106 | – | – | 118 | 125
MFM-223 | – | 112 | – | – | 109 | 87.6
SK-BR-3 [1] | – | 93.5 | – | – | 105 | 108

CO[C@H]1C[C@@H]2CC[C@@H](C)[C@@](O)(O2)C(=O)C(=O)N2CCCC[C@H]2C(=O)O[C@H]([C@H](C)C[C@@H]2CC[C@@H](OC(=O)C(C)(CO)CO)[C@H](OC)C2)CC(=O)[C@H](C)/C=C(\C)[C@@H](O)[C@@H](OC)C(=O)[C@H](C)C[C@H](C)/C=C/C=C/C=C/1C [Temsirolimus]
normalised viability [%]
Details | 0.3 nM | 1 nM | 3 nM | 10 nM | 100 nM | 1000 nM
BT-474 | – | 80 | – | – | 58.6 | 66.2
BT-549 [3] | – | 56.8 | – | – | 62.9 | 53.4
CAL-51 | 89.4 | – | 55.5 | 37.5 | – | –
CAL-85-1 | 69.3 | – | 58.9 | 60.7 | – | –
CAL-120 [4] | – | 70.6 | – | – | 46.5 | 42.7
CAL-148 | 74.3 | – | 45.9 | 39.4 | – | –
DU-4475 | 95.3 | – | 66.6 | 60.2 | – | –
HCC1143 | – | 75.7 | – | – | 66.5 | 61
HCC1599 | – | 103 | – | – | 78.7 | 86.8
HCC1937 | – | 59.5 | – | – | 68.7 | 54.7
HDQ-P1 | 106 | – | 78.4 | 82.5 | – | –
Hs578T | – | 70.4 | – | – | 55.1 | 57.6
MDA-MB-231 | – | 73.4 | – | – | 75.1 | 78.4
MDA-MB-436 [2] | – | 81.8 | – | – | 80.6 | 69.5
MDA-MB-453 | 73.5 | – | 26.1 | 27.1 | – | –
MDA-MB-468 | – | 74.6 | – | – | 68.5 | 62.4
MFM-223 | – | 58.1 | – | – | 50.5 | 41
SK-BR-3 [1] | – | 76.1 | – | – | 54 | 49.7

Details | EC50, CellTiter-Blue viability [nM]
BT-549 [7] | 0.18
CAL-120 [8] | 1.07
MDA-MB-436 [6] | 5.05
SK-BR-3 [5] | 0.92
